Assay results taken from patent publication US10155743B2, “Glutarimide derivatives, use thereof, pharmaceutical composition based thereon and methods for producing glutarimide derivatives” (OBSCHESTVO S OGRANICHENNOI OTVETSTVENNOSTIYU …, priority 2013, dated 2018).

Assays:
[1] = test system: mucous membrane of nasal passages, formalin-induced acute rhinosinusitis; assay: Acute rhinosinusitis rat model (induced by intranasal 7.5% formalin solution); type: in vivo, Wistar rats; settings: rats
Procedure: Morphological studies of histologic preparations were conducted with a Leica DMLS light-optical microscope (Leica Microsystems, Germany). Micro-morphometric assessment was performed by using an ocular micrometer on a Leica DMLB microscope.
Acute rhinosinusitis was induced by intranasal administration of 20 μl of 7.5% formalin solution (aqueous solution comprising 40% formaldehyde, 8% methyl alcohol, and 52% water) to each nasal passage of rats.
Administration of formalin to rat nasal passages leads to the dissemination of inflammation to adjacent tissues, resulting in a clinical pattern similar to the symptoms of rhinosinusitis in a human.
After an acclimatization period, the following groups were formed: • intact animals administered intragastrically a saline solution in an amount of 0.2 ml, the induction of acute rhinosinusitis was not performed; • a control group consisted of the animals administered intragastrically a saline solution in an amount of 0.2 ml for 7 days after induction of acute rhinosinusitis; • animals administered intramuscularly dexamethasone at a dose of 0.33 mg/kg for 7 days after induction of acute rhinosinusitis; and • animals administered the tested compounds at a dose of 27 mg/kg for 7 days after induction of acute rhinosinusitis.
Clinical observation of each animal was performed every day at least twice daily.
In the experiment with Wistar rats, the induction of acute rhinosinusitis by administration of a 7.5% formalin solution to nasal passages caused in the control group of animals pronounced pathological changes characterizing the development of an acute inflammation process in the nasal mucous. The caused pathology was characterized by congestion, hyperplasia, focal necrosis of the nasal meatus mucous membrane, an increased number of caliciform cells, pronounced infiltration by mononuclear cells and leucocytes, and mucus hyperproduction by submucosal glands.
The mucous and submucous membranes of both nasal passages (respiratory and olfactory regions) of the experimental animals were subjected to a morphological analysis to evaluate a specific activity of the compounds.
For microscopic examination, the sections were stained with hematoxylin and eosin. Detection of acid mukopolysaccharides, the production of which is increased in an inflammation, was performed by histochemical staining of the preparation with Alcian Blue (pH 2.5). The comparison and histological evaluation of changes were performed versus the group of intact rats.
After slaughter, the gross appearance of inflammation in the nasal passages was studied in each animal. Histological, hystochemical and morphological studies of rats were intended to evaluate the following characteristics of nasal passages: congestion of the mucous membrane; hyperplasia and necrosis of nasal epithelium, the number of caliciform cells within 1 mm of the mucous membrane of the nasal septum, and the character of inflammation.
In this study, the efficiency of the mucociliary system was evaluated by the number of caliciform cells and, as a consequence, microscopic changes in the mucous membrane of the nasal passages.

[2] = test system: hRV strain (GKV reg. No. 2730); assay: Antiviral activity against rhinovirus in mice (body weight, lung weight, infectious titer in lungs); type: in vivo
[3] = test system: influenza virus strain A/California/07/09 (H1N1) pdm09; assay: animal or person; type: in vivo, white outbred female mice; settings: unidentified influenza virus, H1N1, in Mus musculus, po, 336 h, read-out: Mortality rate, %
[4] = test system: human respiratory syncytial virus (strain A2, ATCC VR-1540); type: in vivo; settings: Balb/c mice, cyclophosphan 100 mg/kg 5 days before infection; 30 mg/kg once daily for 5 days from 24 h; score from possible 4; M ± SD, n = 5
[5] = tested compounds 27 mg/kg for 7 days, count out of n of the group
[6] = 30 mg/kg orally once daily, day 2 after infection
[7] = 30 mg/kg orally once daily, day 3 after infection
[8] = 30 mg/kg orally once daily, day 4 after infection
[9] = 30 mg/kg orally, difference control minus experimental group
[10] = 30 mg/kg orally, lung suspension titrated in Hela cell culture

O=C1CCCC(=O)N1CCc1cnc[nH]1 [Compound 1, 1-(2-(1H-imidazol-4-yl)ethyl)piperidine-2,6-dione]
The number of caliciform cells within 1 mm of the mucous membrane of the nasal septum ([1]; tested compounds 27 mg/kg for 7 days after induction, M ± m): 31.2 ± 1.2
Macroscopic changes in the mucous membrane of nasal passages: Muculent or mucopurulent catarrh (number of animals) [1, 5]: 13
Macroscopic changes in the mucous membrane of nasal passages: Without changes (number of animals) [1, 5]: 5
Body weight of the mice after infection with hRV, day 0 ([2]; 30 mg/kg orally once daily for 5 days starting 12 hours after infection, day 0): 7.36 ± 0.97
Body weight of the mice after infection with hRV, day 1 ([2]; 30 mg/kg orally once daily, day 1 after infection): 8.2 ± 4.25
Body weight of the mice after infection with hRV, day 2 [2, 6]: 13.03 ± 3.51
Lung weight of the mice after infection with hRV, day 2 [2, 6]: 136.9 ± 5.93
Body weight of the mice after infection with hRV, day 3 [2, 7]: 13.47 ± 1.36
Lung weight of the mice after infection with hRV, day 3 [2, 7]: 140.8 ± 5.14
Body weight of the mice after infection with hRV, day 4 [2, 8]: 13.99 ± 1.53
Lung weight of the mice after infection with hRV, day 4 [2, 8]: 128.2 ± 5.81
Suppression of the reproduction of the virus in mouse lungs, Δ lg, Day 2 after infection [2, 9]: 1.1 ± 0.49 Δ lg
Suppression of the reproduction of the virus in mouse lungs, Δ lg, Day 3 after infection [2, 9]: 1.7 ± 0.31 Δ lg
Suppression of the reproduction of the virus in mouse lungs, Δ lg, Day 4 after infection [2, 9]: 2.18 ± 0.08 Δ lg
Infectious titer of the virus in lungs, lg TCID50, Day 2 after infection [2, 10]: 2.9 ± 0.49 lg TCID50
Infectious titer of the virus in lungs, lg TCID50, Day 3 after infection [2, 10]: 0.8 ± 0.31 lg TCID50
Infectious titer of the virus in lungs, lg TCID50, Day 4 after infection [2, 10]: 0.03 ± 0.08 lg TCID50
mortality at 30 mg/kg [3]: 35%
Degree of pulmonary edema on day 5 after infection, score [4]: 1.3 ± 0.27 score
